Data on 8 molecules can be found in ChEMBL document CHEMBL4130387, “Design, synthesis and in vivo study of novel pyrrolidine-based 11β-HSD1 inhibitors for age-related cognitive dysfunction” (Eur J Med Chem, 2017).

As usually defined, the IC50 is the concentration needed to halve the response being measured. High values mean a need for much substance, low ones inhibition by little substance. The inhibition is the change of the read-out against control, counted positive when it falls. Usually AUC(0-t) stands for the area under the concentration-time curve up to a stated or last time point. A higher AUC(0-t) goes with high exposure. As a reminder, the Cmax is the maximum level reached in the sampled fluid or tissue. One may read the CL/F as the apparent clearance, not corrected for the fraction that reaches the circulation. Broadly, the Tmax is the time at which the peak concentration occurs. A word on the AUC(0-inf): it is total exposure, with the tail of the curve extrapolated. A low value points to less exposure.

Data set [1] is described as follows: Stability in human liver microsomes at 10 uM after 30 mins by LC-MS/MS analysis. In kind it is ADME, microsome. The conditions noted are these: read-out: Stability. A general note: Microsomes from liver hold many membrane-bound enzymes, among them those of drug oxidation.
Data set [2] deals with 11-beta-hydroxysteroid dehydrogenase 1 (Homo sapiens, UniProt P28845). As to the kind of experiment: Inhibition of 11beta-HSD1 in human liver microsomes using [3H]cortisone as substrate preincubated for 15 mins followed by substrate addition and measured after 30 mins by scintillation proximity assay.
In data set [3] the target is T1, 11-beta-hydroxysteroid dehydrogenase type 2 (Homo sapiens, UniProt P80365).
T1 sequence (P80365 whole entry): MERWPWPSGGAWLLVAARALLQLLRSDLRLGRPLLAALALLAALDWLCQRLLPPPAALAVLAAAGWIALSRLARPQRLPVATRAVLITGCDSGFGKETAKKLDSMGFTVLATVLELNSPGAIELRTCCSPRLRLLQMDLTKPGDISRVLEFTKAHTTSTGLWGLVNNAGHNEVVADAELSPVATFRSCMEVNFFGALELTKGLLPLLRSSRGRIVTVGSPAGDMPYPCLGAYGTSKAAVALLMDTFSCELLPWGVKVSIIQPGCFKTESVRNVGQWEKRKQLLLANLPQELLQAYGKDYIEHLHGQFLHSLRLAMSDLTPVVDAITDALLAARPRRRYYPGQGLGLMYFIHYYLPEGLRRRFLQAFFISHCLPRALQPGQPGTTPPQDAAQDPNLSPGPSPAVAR
As to the kind of experiment: Inhibition of human full-length 11beta-HSD2 expressed in HEK293 cells using cortisol as substrate after 2 hrs by LC-MS analysis. In kind it is cell-based.

Data set [4] concerns the target T2, 11-beta-hydroxysteroid dehydrogenase type 2 (Homo sapiens) (UniProt P80365).
T2 sequence (whole entry): T1 sequence (P80365 whole entry)
The experiment in a line: Inhibition of human full-length 11beta-HSD2 expressed in HEK293 cells at 10 uM using cortisol as substrate after 2 hrs by LC-MS analysis relative to control. In kind it is cell-based.

Data set [5] can be described thus: Effective permeability by PAMPA. It counts as ADME. Conditions: read-out: Peff. Background: PAMPA measures passive passage across an artificial lipid membrane.
Data set [6] concerns Mus musculus. As to the kind of experiment: Effect on pre-APP protein levels in SAMP8 mouse brain at 21 mg/kg, po for 4 days by Western blot analysis. It counts as functional, organism-based.
The nature of data set [7]: AUClast in CD1 mouse at 21 mg/kg, po by UPLC-MS/MS analysis. In kind it is ADME, organism-based. On the set-up: dose 21 mg/kg, time 0 - last, route oral. Conditions: in vivo.
Data set [8] in a line: Cmax in CD1 mouse at 21 mg/kg, po by UPLC-MS/MS analysis. It counts as ADME, organism-based. On the set-up: dose 21 mg/kg, route oral. Conditions: in vivo.
In data set [9] the test system is Mus musculus. The experiment in a line: Effect on Bace1 mRNA levels in SAMP8 mouse brain at 21 mg/kg, po for 4 days by qRT-PCR analysis. In kind it is functional, organism-based.
The subject of data set [10] is Mus musculus. As to the kind of experiment: Upregulation of IDE protein levels in SAMP8 mouse brain at 21 mg/kg, po for 4 days by Western blot analysis. In kind it is functional, organism-based.
Data set [11] is described as follows: Apparent oral clearance in CD1 mouse at 21 mg/kg, po by UPLC-MS/MS analysis. In kind it is ADME, organism-based. Conditions: in vivo.
The subject of data set [12] is Mus musculus. The experiment in a line: Dose normalized Cmax in CD1 mouse at 21 mg/kg, po by UPLC-MS/MS analysis. It counts as ADME, organism-based. The conditions noted are these: in vivo.
In data set [13] the test system is Mus musculus. The experiment in a line: Effect on pre-APP mRNA levels in SAMP8 mouse brain at 21 mg/kg, po for 4 days by qRT-PCR analysis. In kind it is functional, organism-based. (In qPCR the cycle at which signal appears reflects the starting amount.)
Data set [14] in a line: Plasma concentration in CD1 mouse at 21 mg/kg, po after 0.5 hrs by UPLC-MS/MS analysis. In kind it is ADME, organism-based.
A short description of data set [15]: Plasma concentration in CD1 mouse at 21 mg/kg, po after 3 hrs by UPLC-MS/MS analysis. It counts as ADME, organism-based.
In data set [16] the test system is Mus musculus. As to the kind of experiment: Extrapolated AUC in CD1 mouse at 21 mg/kg, po by UPLC-MS/MS analysis. It counts as ADME, organism-based. The conditions noted are these: in vivo.
Data set [17] in a line: Tmax in CD1 mouse at 21 mg/kg, po by UPLC-MS/MS analysis. It counts as ADME, organism-based. The conditions noted are these: in vivo.
Data set [18] is described as follows: Stability in mouse liver microsomes at 10 uM after 30 mins by LC-MS/MS analysis. In kind it is ADME, microsome. The conditions noted are these: read-out: Stability.
For data set [19], the system named is Mus musculus. The experiment in a line: Cognitive enhancing effect in SAMP8 mouse assessed as prevention of short-term memory deficits by measuring time spent on exploring novel objects at 21 mg/kg, po for 4 days and measured during 10 mins retention trial after 2 hrs by novel object recognition test. In kind it is functional, organism-based.
Data set [20] is described as follows: Ratio of plasma concentration in CD1 mouse at 21 mg/kg, po after 0.5 hrs by UPLC-MS/MS analysis to IC50 for inhibition of 11beta-HSD1 in human liver microsomes. The conditions noted are these: in vivo. It counts as organism-based.
A short description of data set [21]: Elimination rate constant in CD1 mouse at 21 mg/kg, po by UPLC-MS/MS analysis. In kind it is ADME, organism-based. The conditions noted are these: in vivo.
Data set [22] can be described thus: Plasma concentration in CD1 mouse at 21 mg/kg, po after 1 hr by UPLC-MS/MS analysis. In kind it is ADME, organism-based.
Data set [23] can be described thus: Drug uptake in CD1 mouse brain at 21 mg/kg, po after 3 hrs by UPLC-MS/MS analysis. Conditions: read-out: Drug uptake. It counts as ADME, organism-based.
The target in data set [24] is 11-beta-hydroxysteroid dehydrogenase 1 (Mus musculus, UniProt P50172). As to the kind of experiment: Inhibition of 11beta-HSD1 in CD1 mouse liver microsomes using cortisone as substrate preincubated for 15 mins followed by substrate addition and measured after 30 mins by LC-MS analysis.
For data set [25], the system named is Mus musculus. As to the kind of experiment: Downregulation of iNOS mRNA levels in SAMP8 mouse at 21 mg/kg, po for 4 days by qRT-PCR analysis. It counts as functional, organism-based.
The test system of data set [26] is Mus musculus. The experiment in a line: Dose normalized AUC (infinity) in CD1 mouse at 21 mg/kg, po by UPLC-MS/MS analysis. The conditions noted are these: in vivo. In kind it is ADME, organism-based.
The subject of data set [27] is Mus musculus. The experiment in a line: Downregulation of IL-6 mRNA levels in SAMP8 mouse at 21 mg/kg, po for 4 days by qRT-PCR analysis. It counts as functional, organism-based.
Data set [28] can be described thus: Apparent half-life of the terminal disposition phase in CD1 mouse at 21 mg/kg, po by UPLC-MS/MS analysis. In kind it is ADME, organism-based. Conditions: in vivo, read-out: t1/2 lambda z (converted).
The test system of data set [29] is Mus musculus. The experiment in a line: Downregulation of APP beta-secretase C-terminal fragment protein levels in SAMP8 mouse brain at 21 mg/kg, po for 4 days by Western blot analysis. It counts as functional, organism-based.
Data set [30] relates to Mus musculus. As to the kind of experiment: Cognitive enhancing effect in SAMP8 mouse assessed as prevention of short-term memory deficits by measuring time spent on exploring novel objects at 21 mg/kg, po for 4 days and measured during 10 mins retention trial after 24 hrs by novel object recognition test. It counts as functional, organism-based.
Data set [31] deals with Mus musculus. The experiment in a line: Upregulation of PSD95 mRNA levels in SAMP8 mouse at 21 mg/kg, po for 4 days by qRT-PCR analysis. In kind it is functional, organism-based.
Data set [32] in a line: AUC (infinity) in CD1 mouse at 21 mg/kg, po by UPLC-MS/MS analysis. It counts as ADME, organism-based. On the set-up: dose 21 mg/kg, time infinity, route oral. The conditions noted are these: in vivo.
Data set [33] in a line: Apparent volume of distribution during terminal phase in CD1 mouse at 21 mg/kg, po by UPLC-MS/MS analysis. It counts as ADME, organism-based. Conditions: in vivo, read-out: Vz/F.
Data set [34] relates to Mus musculus. As to the kind of experiment: Effect on ADAM10 mRNA levels in SAMP8 mouse brain at 21 mg/kg, po for 4 days by qRT-PCR analysis. In kind it is functional, organism-based.
A short description of data set [35]: Plasma concentration in CD1 mouse at 21 mg/kg, po after 5 hrs by UPLC-MS/MS analysis. It counts as ADME, organism-based.

Each structure is given as a SMILES string. Active and inactive are the calls of the source. No cut-off for these calls is given here. A value given as a limit tells only on which side of the number the result lay.

11-beta-hydroxysteroid dehydrogenase 1 (Homo sapiens, UniProt P28845), sequence (P28845 whole entry): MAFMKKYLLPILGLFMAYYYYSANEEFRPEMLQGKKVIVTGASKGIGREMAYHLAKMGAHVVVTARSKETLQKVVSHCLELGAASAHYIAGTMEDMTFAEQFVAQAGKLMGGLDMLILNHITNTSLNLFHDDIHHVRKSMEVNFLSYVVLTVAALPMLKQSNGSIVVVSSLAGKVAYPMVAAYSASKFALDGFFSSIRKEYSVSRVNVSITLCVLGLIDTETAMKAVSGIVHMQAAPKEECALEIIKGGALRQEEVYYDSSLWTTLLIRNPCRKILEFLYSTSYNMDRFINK
11-beta-hydroxysteroid dehydrogenase 1 (Mus musculus, UniProt P50172), sequence (P50172 whole entry): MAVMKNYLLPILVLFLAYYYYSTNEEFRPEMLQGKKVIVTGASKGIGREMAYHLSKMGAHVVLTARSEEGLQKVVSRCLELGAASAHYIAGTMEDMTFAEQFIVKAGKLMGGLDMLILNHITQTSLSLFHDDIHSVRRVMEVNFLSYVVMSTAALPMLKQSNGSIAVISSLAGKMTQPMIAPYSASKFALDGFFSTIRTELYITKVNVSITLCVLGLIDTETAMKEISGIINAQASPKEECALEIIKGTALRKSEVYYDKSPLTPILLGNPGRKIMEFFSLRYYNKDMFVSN

Consider `O=C(C1CCCCC1)N1CC2C3C=CC(C4CC34)C2C1` (configuration not stated), for which the remaining at 0.5 h, 10 µM in data set [1] is 27%. Further, the IC50 was 20 nM in data set [2] and 1000 to 10000 nM in data set [3].

In the case of `O=C(C1CCCCC1)N1CC23CC=CCC2(CC=CC3)C1` (configuration not stated), inhibition in data set [2] was half-maximal at 40 nM (IC50). The molecule further displayed an inhibition in [4] of 100%.

Take `CCN1CCC[C@@H]1C(=O)NC1C2CC3CC(C2)CC1C3` (some centres not stated): in data set [1], the remaining at 0.5 h, 10 µM worked out at 79%. In [4], this molecule showed an inhibition of 88%.

On to `O=C(C1CCCCC1)N1CC2C3CCC(C3)C2C1` (configuration not stated), for which the Papp in data set [5] was 5.2 ×10⁻⁶ cm/s. In addition, in data set [1], the remaining at 0.5 h, 10 µM was 37%. Besides, the IC50 was 90 nM in data set [2] and < 100 nM in data set [3].

On to `O=C(C1CCCCC1)N1CC2C3CCC(C4CC34)C2C1` (configuration not stated), for which the Papp in [5] was > 30 ×10⁻⁶ cm/s. The outcome in the data set on Mus musculus [6], with Mus musculus [9], in the data set on Mus musculus [13] and with Mus musculus [34] was inactive. The molecule also had an AUC(0-t) in data set [7] of 39.7 ng·h/mL. In data set [8], this molecule registered a Cmax of 44.6 ng/mL. For the same molecule, the result in the data set on Mus musculus [10], in the data set with Mus musculus [19], with Mus musculus [25], in the data set with Mus musculus [27], in the data set on Mus musculus [29] and in the data set on Mus musculus [30] was Active. Besides, the result in the data set on Mus musculus [31] was Active. Moreover, in data set [11], the CL/F is 525 L/h/kg. Also, the figures for the remaining at 0.5 h, 10 µM in data set [1] and in [18] were 94% and 93%, respectively. The Cmax/dose in the data set on Mus musculus [12] is 2.123 kg·ng/mL/mg. For the same molecule, the concentration at 0.5 h in data set [14] came out at 44.6 ng/mL. The concentration at 3 h in [15] was found to be 2.12 ng/mL; in data set [23], 1.45 ng/mL. Also, the IC50 was 30 nM in [2], < 100 nM in data set [3] and 80 nM in data set [24]. In the data set with Mus musculus [16], the “%AUCextra” value is recorded as 0.787%. In addition, the Tmax in data set [17] is 30 min. In addition, the Ratio in [20] amounted to 5. Also, the k el in data set [21] was 0.00025 s⁻¹. The concentration at 1 h in data set [22] was 10.3 ng/mL. The same molecule came in with an AUC/dose with Mus musculus [26] of 1.906 kg·ng·h/mL/mg. Also, the half-life in data set [28] was 46.3 min. This molecule came in with an AUC(0-inf) in data set [32] of 40 ng·h/mL. Moreover, the Vd/F in [33] was found to be 583 L/kg. This molecule also yielded a concentration at 5 h in data set [35] of 0.28 ng/mL.

For `O=C(C1CCCCC1)N1CC2C3CCC(CC3)C2C1` (configuration not stated), the remaining at 0.5 h, 10 µM in data set [1] was determined as 17%. Also, the IC50 is 20 nM in data set [2] and 100 to 1000 nM in [3].

In the case of `O=C(C1CCCCC1)N1CC2C3C=CC(CC3)C2C1` (configuration not stated), the remaining at 0.5 h, 10 µM in data set [1] turned out to be 44%.

In the case of `O=C(C1CCCCC1)N1CC2C3C=CC(C3)C2C1` (configuration not stated), the remaining at 0.5 h, 10 µM in [1] was determined as 60%. The values for the IC50 in data set [2] and in [3] were 20 nM and < 100 nM, respectively.
